Results as given in patent publication US12077503B2, “Substituted cyclic amides and their use as herbicides” (FMC CORPORATION, priority 2015, dated 2024).

Columns and labels:
Assay type in all cases: in vivo
Kochia (Kochia scoparia) [1] = assay: Test A preemergence; details: Bassia scoparia, pre-emergence, 240 h, 0 to 100 scale (0 no effect, 100 complete control), read-out: Plant response rating, Kochia; for pest or weed control at 500 g/ha: 500 g ai/ha, preemergence; for pest or weed control at 125 g/ha: Preemergence, 125 g ai/ha
How it was run: (§1)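 Seeded soil received test chemicals as a preemergence directed spray, and seedlings at one to two leaves, 2–10 cm tall, received them postemergence, in a non-phytotoxic, surfactant-containing solvent mixture. Pots were held in a greenhouse for approximately 10 d, then rated for injury from 0, no effect, to 100, complete control.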

[2] = test system: barnyardgrass (Echinochloa crus-galli); assay: Test A preemergence; details: Echinochloa crus-galli, pre-emergence, 240 h, 0 to 100 scale (0 no effect, 100 complete control), read-out: Plant response rating, Barnyardgrass; for pest or weed control at 500 g/ha: 500 g ai/ha, preemergence; for pest or weed control at 125 g/ha: Preemergence, 125 g ai/ha
How it was run: as §1

[3] = test system: giant foxtail (Setaria faberii); assay: Test A preemergence; details: Setaria faberi, pre-emergence, 240 h, 0 to 100 scale (0 no effect, 100 complete control), read-out: Plant response rating, Foxtail, Giant; for pest or weed control at 500 g/ha: 500 g ai/ha, preemergence; for pest or weed control at 125 g/ha: Preemergence, 125 g ai/ha
How it was run: as §1

[4] = test system: ragweed (common ragweed, Ambrosia elatior); assay: Test A preemergence; details: Ambrosia artemisiifolia, pre-emergence, 240 h, 0 to 100 scale (0 no effect, 100 complete control), read-out: Plant response rating, Ragweed; for pest or weed control at 500 g/ha: 500 g ai/ha, preemergence; for pest or weed control at 125 g/ha: Preemergence, 125 g ai/ha
How it was run: as §1

[5] = test system: ryegrass, Italian (Italian ryegrass, Lolium multiflorum); assay: Test A preemergence; details: Lolium multiflorum, pre-emergence, 240 h, 0 to 100 scale (0 no effect, 100 complete control), read-out: Plant response rating, Ryegrass, Italian; for pest or weed control at 500 g/ha: 500 g ai/ha, preemergence; for pest or weed control at 125 g/ha: Preemergence, 125 g ai/ha
How it was run: as §1

[6] = test system: Galium (catchweed bedstraw, Galium aparine); assay: Test A postemergence; details: Galium, post-emergence, 240 h, Postemergence, read-out: Plant response rating, Galium; for pest or weed control at 125 g/ha: 125 g ai/ha, visual injury after approx. 10 d, 0 to 100 scale, 0 no effect, 100 complete control; for pest or weed control at 500 g/ha: 500 g ai/ha, visual injury, 0 to 100 scale (0 no effect, 100 complete control), approx. 10 d
How it was run: as §1

Kochia (Kochia scoparia) [7] = assay: Test A postemergence; details: Bassia scoparia, post-emergence, 240 h, Postemergence, read-out: Plant response rating, Kochia; for pest or weed control at 125 g/ha: 125 g ai/ha, visual injury after approx. 10 d, 0 to 100 scale, 0 no effect, 100 complete control; for pest or weed control at 500 g/ha: 500 g ai/ha, visual injury, 0 to 100 scale (0 no effect, 100 complete control), approx. 10 d
How it was run: as §1

[8] = test system: barnyardgrass (Echinochloa crus-galli); assay: Test A postemergence; details: Echinochloa crus-galli, post-emergence, 240 h, Postemergence, read-out: Plant response rating, Barnyardgrass; for pest or weed control at 125 g/ha: 125 g ai/ha, visual injury after approx. 10 d, 0 to 100 scale, 0 no effect, 100 complete control; for pest or weed control at 500 g/ha: 500 g ai/ha, visual injury, 0 to 100 scale (0 no effect, 100 complete control), approx. 10 d
How it was run: as §1

[9] = test system: blackgrass (Alopecurus myosuroides); assay: Test A postemergence; details: Alopecurus myosuroides, post-emergence, 240 h, Postemergence, read-out: Plant response rating, Blackgrass; for pest or weed control at 125 g/ha: 125 g ai/ha, visual injury after approx. 10 d, 0 to 100 scale, 0 no effect, 100 complete control; for pest or weed control at 500 g/ha: 500 g ai/ha, visual injury, 0 to 100 scale (0 no effect, 100 complete control), approx. 10 d
How it was run: as §1

corn (Zea mays) = assay: Test A postemergence; details: Zea mays, post-emergence, 240 h, Postemergence; for Corn plant response rating (crop injury, 0 = no effect, 100 = complete kill) at 125 g/ha: 125 g ai/ha, visual injury after approx. 10 d, 0 to 100 scale, 100 complete control; for Corn plant response rating (crop injury, 0 = no effect, 100 = complete kill) at 500 g/ha: 500 g ai/ha, visual injury, 0 to 100 scale (0 no effect, 100 complete control), approx. 10 d
How it was run: as §1

[10] = test system: giant foxtail (Setaria faberii); assay: Test A postemergence; details: Setaria faberi, post-emergence, 240 h, Postemergence, read-out: Plant response rating, Foxtail, Giant; for pest or weed control at 125 g/ha: 125 g ai/ha, visual injury after approx. 10 d, 0 to 100 scale, 0 no effect, 100 complete control; for pest or weed control at 500 g/ha: 500 g ai/ha, visual injury, 0 to 100 scale (0 no effect, 100 complete control), approx. 10 d
How it was run: as §1

[11] = test system: pigweed (Amaranthus retroflexus); assay: Test A postemergence; details: Amaranthus retroflexus, post-emergence, 240 h, Postemergence, read-out: Plant response rating, Pigweed; for pest or weed control at 125 g/ha: 125 g ai/ha, visual injury after approx. 10 d, 0 to 100 scale, 0 no effect, 100 complete control; for pest or weed control at 500 g/ha: 500 g ai/ha, visual injury, 0 to 100 scale (0 no effect, 100 complete control), approx. 10 d
How it was run: as §1

[12] = test system: ragweed (common ragweed, Ambrosia elatior); assay: Test A postemergence; details: Ambrosia artemisiifolia, post-emergence, 240 h, Postemergence, read-out: Plant response rating, Ragweed; for pest or weed control at 125 g/ha: 125 g ai/ha, visual injury after approx. 10 d, 0 to 100 scale, 0 no effect, 100 complete control; for pest or weed control at 500 g/ha: 500 g ai/ha, visual injury, 0 to 100 scale (0 no effect, 100 complete control), approx. 10 d
How it was run: as §1

[13] = test system: ryegrass, Italian (Italian ryegrass, Lolium multiflorum); assay: Test A postemergence; details: Lolium multiflorum, post-emergence, 240 h, Postemergence, read-out: Plant response rating, Ryegrass, Italian; for pest or weed control at 125 g/ha: 125 g ai/ha, visual injury after approx. 10 d, 0 to 100 scale, 0 no effect, 100 complete control; for pest or weed control at 500 g/ha: 500 g ai/ha, visual injury, 0 to 100 scale (0 no effect, 100 complete control), approx. 10 d
How it was run: as §1

[14] = test system: wheat (Triticum aestivum); assay: Test A postemergence; details: Triticum aestivum, post-emergence, 240 h, Postemergence, read-out: Plant response rating, Wheat; for plant injury at 125 g/ha: 125 g ai/ha, visual injury after approx. 10 d, 0 to 100 scale, 0 no effect, 100 complete control; for plant injury at 500 g/ha: 500 g ai/ha, visual injury, 0 to 100 scale (0 no effect, 100 complete control), approx. 10 d
How it was run: as §1

Row | Structure (SMILES) | pest or weed control at 500 g/ha (Kochia (Kochia scoparia) [1]) [%] | pest or weed control at 125 g/ha (Kochia (Kochia scoparia) [1]) [%] | pest or weed control at 500 g/ha [2] [%] | pest or weed control at 125 g/ha [2] [%] | pest or weed control at 500 g/ha [3] [%] | pest or weed control at 125 g/ha [3] [%] | pest or weed control at 500 g/ha [4] [%] | pest or weed control at 125 g/ha [4] [%] | pest or weed control at 500 g/ha [5] [%] | pest or weed control at 125 g/ha [5] [%] | pest or weed control at 125 g/ha [6] [%] | pest or weed control at 500 g/ha [6] [%] | pest or weed control at 125 g/ha (Kochia (Kochia scoparia) [7]) [%] | pest or weed control at 500 g/ha (Kochia (Kochia scoparia) [7]) [%] | pest or weed control at 125 g/ha [8] [%] | pest or weed control at 500 g/ha [8] [%] | pest or weed control at 125 g/ha [9] [%] | pest or weed control at 500 g/ha [9] [%] | Corn plant response rating (crop injury, 0 = no effect, 100 = complete kill) at 125 g/ha (corn (Zea mays)) [%] | Corn plant response rating (crop injury, 0 = no effect, 100 = complete kill) at 500 g/ha (corn (Zea mays)) [%] | further results
1 | Cc1ccc([C@H]2CN(C)C(=O)[C@@H]2C(=O)Nc2ccccc2F)cc1Cl [Compound 1384] | 70 | 30 | 90 | 90 | 90 | 90 | 0 | 0 | 70 | 30 | 30 | 70 | 40 | 60 | 90 | 90 | 0 | 30 | 70 | 90 | pest or weed control at 125 g/ha [10]: 80%; pest or weed control at 500 g/ha [10]: 90%; pest or weed control at 125 g/ha [11]: 0%; pest or weed control at 500 g/ha [11]: 20%; pest or weed control at 125 g/ha [12]: 40%; pest or weed control at 500 g/ha [12]: 40%; pest or weed control at 125 g/ha [13]: 30%; pest or weed control at 500 g/ha [13]: 30%; plant injury at 125 g/ha [14]: 0%; plant injury at 500 g/ha [14]: 50%
2 | Cc1c(F)cccc1NC(=O)[C@H]1C(=O)N(C)C[C@@H]1c1ccc(C(F)(F)F)cc1 [Compound 1386] | 90 | 80 | 100 | 90 | 90 | 90 | 80 | 60 | 70 | 50 | 60 | 60 | 70 | 70 | 90 | 90 | 70 | 80 | 70 | 80 | pest or weed control at 125 g/ha [10]: 90%; pest or weed control at 500 g/ha [10]: 90%; pest or weed control at 125 g/ha [11]: 40%; pest or weed control at 500 g/ha [11]: 70%; pest or weed control at 125 g/ha [12]: 20%; pest or weed control at 500 g/ha [12]: 50%; pest or weed control at 125 g/ha [13]: 40%; pest or weed control at 500 g/ha [13]: 60%; plant injury at 125 g/ha [14]: 50%; plant injury at 500 g/ha [14]: 60%
3 | CC(C)c1cccc([C@H]2CN(C)C(=O)[C@@H]2C(=O)Nc2cccc(F)c2F)c1 [Compound 1388] | 90 | 80 | 100 | 100 | 100 | 100 | 70 | 0 | 100 | 90 | 50 | 50 | 30 | 50 | 100 | 100 | 70 | 90 | 60 | 80 | pest or weed control at 125 g/ha [10]: 90%; pest or weed control at 500 g/ha [10]: 90%; pest or weed control at 125 g/ha [11]: 40%; pest or weed control at 500 g/ha [11]: 50%; pest or weed control at 125 g/ha [12]: 0%; pest or weed control at 500 g/ha [12]: 50%; pest or weed control at 125 g/ha [13]: 60%; pest or weed control at 500 g/ha [13]: 90%; plant injury at 125 g/ha [14]: 50%; plant injury at 500 g/ha [14]: 60%
